According to patent US20240358822A1, “ALLERGY TREATMENT” (ENA RESPIRATORY PTY LTD, priority 2021, published 2024):

Key:
Assay type in all cases: cell-based, human
[1] = system: PBMC from cat allergic patients; assay: IL-10 production by PBMC of cat allergic patients, ELISA; conditions: 24 hours, 72 hours, 6 days; cat allergen Feld 1
Description: FIG. 11. […] PBMC from cat allergic patients (N=3) were cultured for 24 hours, 72 hours or 6 days, with or without allergen (Feld 1 0.1 or […]), in the presence or absence of a range of INNA-001, INNA-006 or Pam2CSK4 concentrations (0.3, 3, 10 and 30 μg/mL). The culture supernatants were harvested and the levels of IL-10 were measured by Elisa.
(§1) PBMC from patients with allergy to Timothy grass pollen (Phleum pratense) or cat (Fel d 1) were cultured for 24 hours, 72 hours or 6 days, in the presence or absence of allergen and INNA-001, INNA-006 or Pam3CSK4 (a TLR2 agonist known to induce IL-10 production) and the production of IL-10 and IL-6 (used as a control, TLR2-induced cytokine) was measured in the cell culture supernatants.

[2] = system: PBMC from grass pollen allergic patients; assay: Kinetics of IL-10 production by PBMC, ELISA
Description: (§2) FIG. 9. […] PBMC from grass pollen allergic patients (N=3) were cultured for 24 hours with or without a range of allergen concentrations (Phlp at […]), in the presence or absence of a range of INNA-001, INNA-006 or Pam2CSK4 concentrations (from 0.01 to 10 μg/mL). The culture supernatants were harvested and the levels of IL-10 (A) and IL-6 (B) were measured by ELISA. All data shown are mean±SEM.
FIG. 10. […] PBMC from grass pollen allergic patients (N=3) were cultured for 24 hours, 72 hours or 6 days, with or without allergen (Phlp […]), in the presence or absence of a range of INNA-001, INNA-006 or Pam3CSK4 concentrations (0.3, 3, 10 and 30 μg/mL). The culture supernatants were harvested and the levels of IL-10 were measured by ELISA. All data shown are mean±SEM.
as §1

[3] = system: PBMC from grass pollen allergic patients; assay: IL-6 production by PBMC at 24 hours, ELISA
Description: as §2, §1

[4] = system: PBMC from grass pollen allergic patients; assay: Expansion of Th2 cell phenotypes on allergen stimulation, Flow Cytometry; conditions: in the presence of allergen; 6 days
Description: FIG. 3. Treatment with INNA-001 suppresses the expansion of pro-allergic Th2 cell phenotypes in response to allergen stimulation. PBMC from grass pollen allergic patients (N=12) were cultured for 6 days with or without allergen (Phlp at 10 μg/mL) and with or without a range of concentrations of INNA-001. After 6 days, the cells were harvested, washed and activated with phorbol 12-myristate 13-acetate (25 ng/mL) and ionomycin (1 μg/mL) for 5 hours. Brefeldin A (10 μg/mL) was added for the final 4 hours of stimulation. Subsequently the cells were washed and stained for anti-human CD4, CD27, CRTH2, CD49d, CD161, IL-13 and IL-4. Analysis was performed by Flow Cytometry. Proliferation of cells was measured using CellTrace violet. All data shown are mean±SEM. Graphs represent normalised changes from baseline (untreated). Statistical analysis was performed using ANOVA with Dunn's multiple comparisons test for within-group comparisons (*p<0.05, **p<0.01, ***p<0.001 for the +Phlp group).
FIG. 4. […]
PBMC from patients with allergy to Timothy grass pollen (Phleum pratense) were cultured for 6 days in the presence or absence of allergen and INNA-001 or control compounds. Allergen-induced proliferation and cytokine production were assessed and the phenotype of proliferating allergen-stimulated T cells was determined.

[5] = system: PBMC from grass pollen allergic patients; assay: CD4+ T regulatory cell induction in PBMC, 6 days, Flow Cytometry / FlowSOM
Description: FIG. 14. […] PBMC from grass pollen allergic patients were cultured for 6 days with or without allergen (Phlp at 10 μg/mL) and with or without a range of concentrations of INNA-001 or Pam2CSK4 (0.3, 3 and […]). At day 6 the cells were harvested, washed and stained for anti-human CD4, CD25, CD127 and Foxp3. Analysis was performed by Flow Cytometry. All data shown are mean±SEM. Graphs represent changes from baseline (untreated). Statistical analysis was performed using ANOVA with Dunn's multiple comparisons test for within-group comparisons. Mann-Whitney U test was performed for between-group comparisons. Statistical significance in the +Phlp group: *p<0.05, **p<0.01, ***p<0.001.
FIG. 15. […] PBMC from grass pollen allergic patients were cultured for 6 days with or without allergen (Phlp at 10 μg/mL) and with or without a range of concentrations of INNA-001 or Pam2CSK4 (0.3, 3 and 10 μg/ml). At day 6 the cells were harvested, washed and stained for anti-human CD4, CD25, CD127, Foxp3 and CD45RO. Analysis was performed by Flow Cytometry. All data shown are mean±SEM. Graphs represent changes from baseline (untreated) (A) naive FoxP3^+CD25^+CD127^−CD4^+CD45RO^− cells, and (B) memory FoxP3^+CD25^+CD127^−CD4^+CD45RO^+ cells. Statistical analysis was performed using ANOVA with Dunn's multiple comparisons test for within-group comparisons. Mann-Whitney U test was performed for between-group comparisons. Statistical significance in the +Phlp group: *p<0.05, **p<0.01, ***p<0.001.
FIG. 16. […] PBMC from grass pollen allergic patients (N=3 for INNA=003 & INNA-006, N=7 for INNA-001 & Pam2CSK4) were cultured for 6 days with or without allergen (Phlp at 10 μg/mL) and with or without a range of concentrations of INNA-001, INNA-003, INNA-006 or Pam2CSK4 (0.3, 3 and 10 μg/mL). At day 6 the cells were harvested, washed and stained for anti-human CD4, CD25, CD127, Foxp3 and CD45RO. Analysis was performed by Flow Cytometry. All data shown are mean±SEM.
FIG. 17. […] PBMC from grass pollen allergic patients were cultured for 6 days with allergen (Phlp at 10 μg/mL) and with or without INNA-001 or Pam2CSK4 (3 μg/mL). At 6 days the cells were harvested, washed and stained for anti-human Foxp3, CD4, CD25, CD45RO, CD127, CTLA4 and SABT1. Analysis was performed by Flow Cytometry. The data were further analysed using unbiased FlowSOM technique. Foxp3^+ T regulatory cell metacluster identification following treatment with INNA-001 A) in the presence of Phlp (N=3) or B) absence of Phlp (N=3). C) Heatmap display of the marker expression profile of the identified metaclusters (N=3). D) Quantification of population abundance of the metaclusters 3, 5 and 9 following INNA-001 and Pam2CSK4 treatment in the presence of Phlp (N=3). […]

[6] = system: PBMC from grass pollen allergic patients; assay: IL-10 producing monocytes after 24 hours PBMC culture, Flow Cytometry
Description: FIG. 12. […] PBMC from grass pollen allergic patients were cultured for 24 hours with or without allergen (Phlp at 10 μg/mL) and with or without a range of concentrations of INNA-001 or Pam2CSK4 (0.3, 3 and 10 μg/mL). At 24 hours the cells were harvested, washed and stained for anti-human CD14, CD16 and IL-10. Analysis was performed by Flow Cytometry. A) Flow Cytometry representative plots (N=3) for percentage of IL-10-producing subpopulation of non-classical (CD14^low CD16^+) monocytes after treatment with […] of TLR2 agonists (INNA-001 or Pam2CSK4) in the presence of Phlp. B) Quantification (N=12) of IL-10 producing non-classical (CD14^low CD16^+) and C) Quantification (N=12) of IL-10 producing classical (CD14^highCD16^−) monocytes. All data shown are mean±SEM. Graphs represent changes from baseline (untreated). Statistical analysis was performed using ANOVA with Dunn's multiple comparisons test for within-group comparisons. Mann-Whitney U test was performed for between-group comparisons. Statistical significance in the +Phlp group: *p<0.05, **p<0.01, ***p<0.001.
FIG. 13. […] PBMC from grass pollen allergic patients (N=3) were cultured for 24 hours with or without allergen (Phlp at 10 μg/mL) and with or without a range of concentrations of INNA-001, INNA-003 or INNA-006 (0.3, 3, 10 and 30 μg/ml). At 24 hours the cells were harvested, washed and stained for anti-human CD14, CD16 and IL-10. Analysis was performed by Flow Cytometry. All data shown are mean±SEM.
To examine it, PBMC from patients with allergy to Timothy grass pollen (Phleum pratense) were cultured with INNA-001 or control TLR2 agonist compounds, in the presence or absence of allergen, for 24 hours. At 24 hours the cells were harvested, washed and stained for IL-10 and the monocyte markers CD16 and CD14, using relevant anti-human antibodies. Analysis of the monocyte populations (classical and non-classical monocytes) was performed by Flow Cytometry. Lymphoid cells were excluded using antibodies against lineage markers CD3, CD4, CD15, CD19, CD56.

| Substance | IL-10 upregulation in PBMC of cat allergic subjects [1] | IL-10 generation at 24 hours ([2]; 24 hours, presence or absence of allergen) | IL-10 levels at 72 hours and 6 days ([2]; 72 hours, 6 days) | influence of parallel allergen stimulation on IL-10 production ([2]; with versus without allergen) | IL-6 generation at 24 hours [3] | influence of parallel allergen stimulation on IL-6 production ([3]; with versus without allergen) | number of proliferating IL-13 producing-Th2 (CD4+CD27-CRTH2+IL-13+) cells [4] | memory FoxP3+CD25+CD127-CD4+CD45RO+ T regulatory cells [5] | naive FoxP3+CD25+CD127-CD4+CD45RO- T regulatory cells [5] | total number of CD4+CD25+CD127- regulatory T cells [5] | expansion of Foxp3+ T regulatory cell metaclusters MC3, MC5 and MC9 (FlowSOM) ([5]; 3 μg/mL) | number of IL-10+ non-classical CD14low/CD16+ monocytes ([6]; 24 hours) | numbers of IL-10+ classical CD14high/CD16- monocytes ([6]; 24 hours) | influence of allergen on IL-10+ classical monocytes ([6]; with versus without allergen) |
| --- | --- | --- | --- | --- | --- | --- | --- | --- | --- | --- | --- | --- | --- | --- |
| Pam3CSK4 | stimulated dose-dependent upregulation of IL-10 | rapid, dose-dependent generation of IL-10 | remained high, but with declining levels | did not appear to considerably influence | strong IL-6 generation | did not appear to influence | – | – | – | – | – | – | – | – |
| Pam2CSK4 | – | – | – | – | – | – | also reduced the number of proliferating Th2 (CD4+CD27−CRTH2+IL-13+) cells, but to a lesser degree than INNA-001 | Analogous | Analogous | Analogous results | the same metaclusters were also found prominent | increase, although slightly less pronounced | lower increase | independent of the presence of allergen |
